These results are taken from US6849634B2, “Potassium channel inhibitors” (ICAgen, priority 2000, dated 2005).

T1 sequence (P22460 whole entry): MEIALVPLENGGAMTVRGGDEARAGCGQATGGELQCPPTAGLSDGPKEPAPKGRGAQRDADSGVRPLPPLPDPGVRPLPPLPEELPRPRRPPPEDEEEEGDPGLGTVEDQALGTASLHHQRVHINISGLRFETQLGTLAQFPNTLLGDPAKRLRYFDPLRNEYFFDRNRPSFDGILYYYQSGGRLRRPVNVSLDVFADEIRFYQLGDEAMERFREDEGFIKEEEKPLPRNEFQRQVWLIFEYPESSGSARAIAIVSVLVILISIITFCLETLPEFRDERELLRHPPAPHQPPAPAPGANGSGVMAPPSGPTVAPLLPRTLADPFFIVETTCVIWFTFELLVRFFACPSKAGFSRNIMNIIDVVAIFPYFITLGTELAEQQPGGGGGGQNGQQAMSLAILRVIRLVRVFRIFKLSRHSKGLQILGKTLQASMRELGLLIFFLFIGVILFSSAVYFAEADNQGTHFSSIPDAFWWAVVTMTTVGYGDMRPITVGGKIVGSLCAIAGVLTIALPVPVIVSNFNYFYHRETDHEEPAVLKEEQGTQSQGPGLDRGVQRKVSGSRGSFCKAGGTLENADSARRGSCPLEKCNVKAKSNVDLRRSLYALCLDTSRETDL

This test has as its target T1, Kv1.5 (Homo sapiens, UniProt P22460).
T1 construct: expressed in transfected cells; host or cells: CHO cells
Briefly: Kv1.5 inhibition by patch clamp technique. Conditions: inhibitors of Kv1.5. It is filed as cell-based. The text has this:
The pharmacological profile of the potassium channel inhibitory activity of the compounds of the present invention can be readily assessed by those skilled in the art using routine experimentation, such as the procedures and techniques illustrated in the examples which follow. Assays for assessing the activity of particular compounds may employ cells stably transfected to express a specific potassium channel, as well as native mammalian cells. In particular, stable transfected cells, transfected to express a specific potassium channel, which have been treated with a voltage dependent fluorescent dye, such as bis-(1,3-dibutylbarbituric acid) trimethine oxonol, can be used to gauge the inhibitory activity of potassium channel inhibitor compounds, possibly in comparison to known inhibitors. Alternatively, such cells can be primed with a detectible species, such as 86Rb, and then challenged with a particular compound, under conditions otherwise suitable for activating the potassium channel, to assess the potassium inhibitory activity of the compound. The potassium channel inhibitory activity of a compound also can be determined using isolated mammalian cells and the whole cell configuration of the known patch clamp technique (Hamill et al., Pflugers Archiv 391:85, 1981). These and other known techniques can be readily employed by those skilled in the art to assess the activity level of the potassium channel inhibitor compounds of the present invention.
The cloning, construction and testing of CHO cells that express human voltage-gate potassium channels are described in prior U.S. patent application Ser. No. 08/893,160 (published as WO 98/04521, see also U.S. Pat. No. 6,083,986), as are assays for measuring ^86rubidium efflux from cell monolayers; fluorescence measurement of cell membrane potential; electrophysiological studies and lymphocyte proliferation studies, all of which are incorporated herein by reference.
The efficacy of various compounds of the present invention as inhibitors of Kv1.5 are shown in Table 2 (using the known patch clamp techniques cited above and described in detail in WO 98/04521 (see also U.S. Pat. No. 6,083,986), the disclosure of which is incorporated herein by reference)
(In general: In patch-clamp work, channel activity is measured electrically.)
For orientation: inhibition means the share of the control response that was lost under treatment. Consider `CCc1ccc(S(=O)(=O)NC2CCc3ccc(Nc4ncccc4NC(=O)CCc4ccccc4)cc32)cc1` (stereo not shown) [Compound 1], for which testing at 0.1 µM gave an inhibition of 46%.

`C=CCNC(=O)c1cccnc1Nc1ccc2c(c1)C(NS(=O)(=O)c1ccc(CC)cc1)CC2` (stereo not shown) [Compound 26] showed an inhibition at 0.1 µM of 38%.

The molecule `C#CCNC(=O)c1cccnc1Nc1ccc2c(c1)C(NS(=O)(=O)c1ccc(CC)cc1)CC2` (stereo not shown) [Compound 27] showed an inhibition at 0.1 µM of 43%.

`CCCNC(=O)c1cccnc1Nc1ccc2c(c1)C(NS(=O)(=O)c1ccc(CC)cc1)CC2` (stereo not shown) [Compound 37] returned an inhibition at 0.1 µM of 35%.

The molecule `CCc1ccc(S(=O)(=O)NC2CCc3ccc(Nc4ncccc4C(=O)NCc4ccco4)cc32)cc1` (stereo not shown) [Compound 42] registered an inhibition at 0.1 µM of 45%.

On to `O=C(NCCc1ccccc1)c1cccnc1Nc1ccc2c(c1)C(NS(=O)(=O)c1ccc(F)cc1)CC2` (stereo not shown) [Compound 58], for which the inhibition at 0.1 µM was 27%.

The molecule `O=C(NCc1cccs1)c1cccnc1Nc1ccc2c(c1)C(NS(=O)(=O)c1ccc(F)cc1)CC2` (stereo not shown) [Compound 59] gave an inhibition at 0.1 µM of 20%.
